Experiments:
canarygrass = experiment: Test D preemergence; format: in vivo, Phalaris minor; settings: Preemergence, scale 0 to 100
How it was run: (§1)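 Visual 0–100 control ratings at 14–21 days in a controlled growth environment. Application preemergence onto silt loam or postemergence onto 2–18 cm seedlings, using a non-phytotoxic solvent formulation with surfactant.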

bromegrass, downy = experiment: Test D preemergence; format: in vivo, Bromus tectorum; settings: Preemergence, scale 0 to 100
Excerpt: (§2) Seeds of plant species selected from bluegrass (annual bluegrass, Poa annua), blackgrass (Alopecurus myosuroides), canarygrass (littleseed canarygrass, Phalaris minor), chickweed (common chickweed, Stellaria media), galium (catchweed bedstraw, Galium aparine), bromegrass, downy (downy bromegrass, Bromus tectorum), field poppy (Papaver rhoeas), field violet (Viola arvensis), foxtail, green (green foxtail, Setaria viridis), deadnettle (henbit deadnettle, Lamium amplexicaule), ryegrass, Italian (Italian ryegrass, Lolium multiflorum), kochia (Kochia scoparia), lambsquarters (Chenopodium album), oilseed rape (Brassica napus), pigweed (redroot pigweed, Amaranthus retroflexus), chamomile (scentless chamomile, Matricaria inodora), speedwell (bird's-eye speedwell, Veronica persica), barley, spring (spring barley, Hordeum vulgare), wheat, spring (spring wheat, Triticum aestivum), buckwheat, wild (wild buckwheat, Polygonum convolvulus), mustard, wild (wild mustard, Sinapis arvensis), oat, wild (wild oat, Avena fatua), radish, wild (wild radish, Raphanus raphanistrum), windgrass (Apera spica-venti), Russian thistle (Salsola kali), barley, winter (winter barley, Hordeum vulgare), and wheat, winter (winter wheat, Triticum aestivum) were planted into a silt loam soil and treated preemergence with test chemicals formulated in a non-phytotoxic solvent mixture which included a surfactant.
(§3) At the same time, these species were planted in pots containing Redi-Earth® planting medium (Scotts Company, 14111 Scottslawn Road, Marysville, Ohio 43041) comprising spaghnum peat moss, vermiculite, wetting agent and starter nutrients and treated with postemergence applications of the test chemicals formulated in the same manner. Plants ranged in height from 2 to 18 cm (1- to 4-leaf stage). Treated plants and controls were maintained in a controlled growth environment for 14 to 21 days after which time all species were compared to controls and visually evaluated. Plant response ratings, summarized in Table D, are based on a scale of 0 to 100 where 0 is no effect and 100 is complete control. A dash (-) response means no test result.

field poppy = experiment: Test D preemergence; format: in vivo, Papaver rhoeas; settings: Preemergence, scale 0 to 100
How it was run: as §1

field violet = experiment: Test D preemergence; format: in vivo, Viola arvensis; settings: Preemergence, scale 0 to 100
How it was run: as §1

ryegrass, Italian [1] = experiment: Test D preemergence; format: in vivo, Lolium multiflorum; settings: Preemergence, scale 0 to 100
Excerpt: as §2, §3

lambsquarters = experiment: Test D preemergence; format: in vivo, Chenopodium album; settings: Preemergence, scale 0 to 100
How it was run: as §1

pigweed = experiment: Test D preemergence; format: in vivo, Amaranthus retroflexus; settings: Preemergence, scale 0 to 100
How it was run: as §1

speedwell = experiment: Test D preemergence; format: in vivo, Veronica persica; settings: Preemergence, scale 0 to 100
Excerpt: as §2, §3

barley, spring = experiment: Test D preemergence; format: in vivo, Hordeum vulgare; settings: Preemergence, scale 0 to 100
How it was run: as §1

barley, winter = experiment: Test D preemergence; format: in vivo, Hordeum vulgare; settings: Preemergence, scale 0 to 100
How it was run: as §1

radish, wild = experiment: Test D preemergence; format: in vivo, Raphanus raphanistrum; settings: Preemergence, scale 0 to 100
Excerpt: as §2, §3

bluegrass = experiment: Test D postemergence; format: in vivo, Poa annua; settings: scale 0 to 100
How it was run: as §1

blackgrass = experiment: Test D postemergence; format: in vivo, Alopecurus myosuroides; settings: scale 0 to 100
Excerpt: as §2, §3

chickweed = experiment: Test D postemergence; format: in vivo, Stellaria media; settings: scale 0 to 100
Excerpt: as §2, §3

ryegrass, Italian [2] = experiment: Test D postemergence; format: in vivo, Lolium multiflorum; settings: scale 0 to 100
How it was run: as §1

kochia = experiment: Test D postemergence; format: in vivo, Kochia scoparia; settings: scale 0 to 100
How it was run: as §1

oilseed rape = experiment: Test D postemergence; format: in vivo, Brassica napus; settings: scale 0 to 100
How it was run: as §1

wheat, spring = experiment: Test D postemergence; format: in vivo, Triticum aestivum; settings: scale 0 to 100
How it was run: as §1

wheat, winter = experiment: Test D postemergence; format: in vivo, Triticum aestivum; settings: scale 0 to 100
How it was run: as §1

oat, wild = experiment: Test D postemergence; format: in vivo, Avena fatua; settings: scale 0 to 100
How it was run: as §1

## CCCc1cc(C(=O)NC2CC2)nn1Cc1cc(C(F)(F)F)nn1C [Compound 202]
canarygrass; 31 g ai/ha
  Plant response rating, Canarygrass: 10
canarygrass; 62 g ai/ha
  Plant response rating, Canarygrass: 40
canarygrass; 125 g ai/ha
  Plant response rating, Canarygrass: 75
canarygrass; 250 g ai/ha
  Plant response rating, Canarygrass: 85
bromegrass, downy; 31 g ai/ha
  Plant response rating, Bromegrass, Downy: 25
bromegrass, downy; 62 g ai/ha
  Plant response rating, Bromegrass, Downy: 35
bromegrass, downy; 125 g ai/ha
  Plant response rating, Bromegrass, Downy: 35
bromegrass, downy; 250 g ai/ha
  Plant response rating, Bromegrass, Downy: 50
Field poppy; 62 g ai/ha
  Plant response rating, Field Poppy: 100
Field poppy; 125 g ai/ha
  Plant response rating, Field Poppy: 100
Field poppy; 250 g ai/ha
  Plant response rating, Field Poppy: 100
Field violet; 62 g ai/ha
  Plant response rating, Field Violet: 25
Field violet; 125 g ai/ha
  Plant response rating, Field Violet: 100
Field violet; 250 g ai/ha
  Plant response rating, Field Violet: 100
ryegrass, Italian [1]; 62 g ai/ha
  Plant response rating, Ryegrass, Italian: 0
ryegrass, Italian [1]; 125 g ai/ha
  Plant response rating, Ryegrass, Italian: 40
ryegrass, Italian [1]; 250 g ai/ha
  Plant response rating, Ryegrass, Italian: 80
lambsquarters; 62 g ai/ha
  Plant response rating, Lambsquarters: 75
lambsquarters; 125 g ai/ha
  Plant response rating, Lambsquarters: 100
lambsquarters; 250 g ai/ha
  Plant response rating, Lambsquarters: 100
pigweed; 62 g ai/ha
  Plant response rating, Pigweed: 100
pigweed; 125 g ai/ha
  Plant response rating, Pigweed: 100
pigweed; 250 g ai/ha
  Plant response rating, Pigweed: 100
speedwell; 62 g ai/ha
  Plant response rating, Speedwell: 100
speedwell; 125 g ai/ha
  Plant response rating, Speedwell: 100
speedwell; 250 g ai/ha
  Plant response rating, Speedwell: 100
barley, spring; 31 g ai/ha
  Plant response rating, Barley, Spring: 0
barley, spring; 62 g ai/ha
  Plant response rating, Barley, Spring: 0
barley, spring; 125 g ai/ha
  Plant response rating, Barley, Spring: 55
barley, spring; 250 g ai/ha
  Plant response rating, Barley, Spring: 65
barley, winter; 31 g ai/ha
  Plant response rating, Barley, Winter: 0
barley, winter; 62 g ai/ha
  Plant response rating, Barley, Winter: 0
barley, winter; 125 g ai/ha
  Plant response rating, Barley, Winter: 25
barley, winter; 250 g ai/ha
  Plant response rating, Barley, Winter: 45
radish, wild; 62 g ai/ha
  Plant response rating, Radish, Wild: 100
radish, wild; 125 g ai/ha
  Plant response rating, Radish, Wild: 100
radish, wild; 250 g ai/ha
  Plant response rating, Radish, Wild: 100
bluegrass; Postemergence, 31 g ai/ha
  Bluegrass plant response rating: 20
bluegrass; Postemergence, 125 g ai/ha
  Bluegrass plant response rating: 25
bluegrass; Postemergence, 250 g ai/ha
  Bluegrass plant response rating: 35
bluegrass; postemergence, 62 g ai/ha
  Bluegrass plant response rating: 20
blackgrass; Postemergence, 31 g ai/ha
  Blackgrass plant response rating: 15
blackgrass; Postemergence, 125 g ai/ha
  Blackgrass plant response rating: 25
blackgrass; Postemergence, 250 g ai/ha
  Blackgrass plant response rating: 35
blackgrass; postemergence, 62 g ai/ha
  Blackgrass plant response rating: 15
chickweed; Postemergence, 31 g ai/ha
  Chickweed plant response rating: 55
chickweed; Postemergence, 125 g ai/ha
  Chickweed plant response rating: 45
chickweed; Postemergence, 250 g ai/ha
  Chickweed plant response rating: 70
chickweed; postemergence, 62 g ai/ha
  Chickweed plant response rating: 55
ryegrass, Italian [2]; Postemergence, 31 g ai/ha
  Ryegrass, Italian plant response rating: 10
ryegrass, Italian [2]; Postemergence, 125 g ai/ha
  Ryegrass, Italian plant response rating: 10
ryegrass, Italian [2]; Postemergence, 250 g ai/ha
  Ryegrass, Italian plant response rating: 15
ryegrass, Italian [2]; postemergence, 62 g ai/ha
  Ryegrass, Italian plant response rating: 10
kochia; Postemergence, 31 g ai/ha
  Kochia plant response rating: 70
kochia; Postemergence, 125 g ai/ha
  Kochia plant response rating: 75
kochia; Postemergence, 250 g ai/ha
  Kochia plant response rating: 85
kochia; postemergence, 62 g ai/ha
  Kochia plant response rating: 70
Oilseed rape; Postemergence, 31 g ai/ha
  Oilseed Rape plant response rating: 40
Oilseed rape; Postemergence, 125 g ai/ha
  Oilseed Rape plant response rating: 50
Oilseed rape; Postemergence, 250 g ai/ha
  Oilseed Rape plant response rating: 60
Oilseed rape; postemergence, 62 g ai/ha
  Oilseed Rape plant response rating: 40
wheat, spring; Postemergence, 31 g ai/ha
  Wheat, Spring plant response rating: 10
wheat, spring; Postemergence, 125 g ai/ha
  Wheat, Spring plant response rating: 10
wheat, spring; Postemergence, 250 g ai/ha
  Wheat, Spring plant response rating: 20
wheat, spring; postemergence, 62 g ai/ha
  Wheat, Spring plant response rating: 10
wheat, winter; Postemergence, 31 g ai/ha
  Wheat, Winter plant response rating: 15
wheat, winter; Postemergence, 125 g ai/ha
  Wheat, Winter plant response rating: 20
wheat, winter; Postemergence, 250 g ai/ha
  Wheat, Winter plant response rating: 25
wheat, winter; postemergence, 62 g ai/ha
  Wheat, Winter plant response rating: 15
oat, wild; Postemergence, 31 g ai/ha
  Oat, Wild plant response rating: 25
oat, wild; Postemergence, 125 g ai/ha
  Oat, Wild plant response rating: 30
oat, wild; Postemergence, 250 g ai/ha
  Oat, Wild plant response rating: 40
oat, wild; postemergence, 62 g ai/ha
  Oat, Wild plant response rating: 25

— patent US20150105252A1, “SUBSTITUTED PYRAZOLES AS HERBICIDES” (E I DU PONT DE NEMOURS AND COMPANY, priority 2013, published 2015)
